Source: paper PMC10305181, “A VEGFB-Based Peptidomimetic Inhibits VEGFR2-Mediated PI3K/Akt/mTOR and PLCγ/ERK Signaling and Elicits Apoptotic, Antiangiogenic, and Antitumor Activities” (Pharmaceuticals, 2023)
Bridge positions count the residues as written; N and C are the ends. Peptide text beside a SMILES is read from it.

Key:
[1] = test system: extracellular domain of VEGFR2 (KDR); experiment: ELISA-based displacement (competition binding) of biotinylated VEGF from VEGFR2; settings: ELISA, n = 3
Procedure: Figure 3 The binding affinity of C-VGB3 to VEGFR2. (A) ELISA-based displacement assay. The gradient concentrations of C-VGB3 (0, 0.316, 1, 3.16, 10, 31.6, 100, and 316 μM) were used in the assay. […] Error bars denote ± SEM. n = 3; ** p = 0.001, *** p = 0.0001, **** p < 0.0001, ns = not significant; one-way ANOVA. (B) A three-dimensional (produced by UCSF chimera software version 1.12) and a two-dimensional representation (produced by LigPlot software) of interactions in the C-VGB3/VEGFR2 complex is shown on the left and the right, respectively.
A displacement assay was conducted as reported previously with some modifications, including using 20 ng of the VEGFR2 extracellular domains (R&D Systems, Minneapolis, MN, USA). Peptide compounds were assayed three times per experiment.
Figure S6. Evaluating the binding capability of L-VGB3 to VEGFR2
(A) ELISA-based displacement assay. The gradient concentrations of L-VGB3 (3.16, 10, […]
to the extracellular domain of VEGFR2 at applied concentrations. (B) Two-dimensional representation of interactions (produced by LigPlot software) in L-VGB3/VEGFR2 […]

HUVECs = experiment: TUNEL assay, HUVECs; assay type: cell-based, human; settings: 0.40 μM, n = 3, p < 0.0001
Text: Periodic boundary conditions were used, and bonds were restrained by applying the LINCS algorithm to their equilibrium position. Initial structures were solvated with three-point model water molecules in a cubic box of 1.0 nm to fully cover the protein system in water, following periodic boundary conditions (PBC). The produced system for each peptide was neutralized through the “genion tool” plugin of the GROMACS package by adding ions Na+ and Cl−. Then, the system was minimized for 50000 iterations using the steepest descent (SD) algorithm and using velocity rescaling (modiﬁed Berendsen) temperature coupling and Parrinello-Rahman pressure coupling methods, simulated under an isothermal-isobaric ensemble (NPT) for 5 ns at a constant temperature, the pressure of 300 K, and 1 atm, respectively. The NVT and NPT equilibration was carried out for 50000 steps. The minimization and equilibration procedures were executed, and finally, one system of the peptide was subjected to a 200 ns production run of MD simulations utilizing 2 fs as the time step and coordinates of all atoms were recorded in the form of .trr GROMACS trajectory ﬁle every 10 ps.
2 × 10^3 HUVE or 4T1 cells were cultured in DMEM and RPMI-1640 media, respectively, supplemented with 10% (v/v) FBS overnight. Then, the cells were incubated in the media supplemented with 5% FBS, with PBS or C-VGB3 (0.40 μM). […]

With CC(C)C[C@@H]1NC(=O)CNC(=O)[C@H](CC(=O)O)NC(=O)[C@H](CC(=O)O)NC(=O)[C@@H]2CCCN2C(=O)[C@@H]2CCCN2C(=O)[C@H](CCCNC(=N)N)NC(=O)[C@@H](NC(=O)[C@@H](N)CCC(=O)O)CSSC[C@@H](C(=O)O)NC1=O [C-VGB3] (H-ECRPPDDGLC-OH; disulfide 2-10) the “inhibition of binding of bt-VEGF to KDR” value ([1]; 0-316 μM) was “inhibits the binding of biotinylated VEGF (bt-VEGF) to KDR dose-dependently”, the “displacement of btVEGF165” value ([1]; 100 μM, ectodomain of VEGFR2) was 58% and the TUNEL fluorescent labeling (HUVECs) was “fluorescent-labeled more than control cells”.
